Data set [1] concerns Jurkat. In words: Cytotoxicity against human Jurkat cells up to 2000 uM after 48 hrs by trypan blue staining. It counts as cell-based.
A short description of data set [2]: Half life of the compound in phosphate buffer at pH 7.4 assessed as acyclovir formation by TLC analysis. It counts as physicochemical.
In data set [3] the test system is Human immunodeficiency virus 1. In words: Antiviral activity against HIV1 pseudovirus infected in Jurkat cells coexpressing GFP assessed as viral growth inhibition up to 100 uM incubated for 2 to 8 hrs prior to infection measured after 48 hrs by flow cytofluorimetric analysis. Format: functional, organism-based.
Data set [4] can be described thus: Half life of the compound in KCl/HCl buffer at pH 2 assessed as acyclovir monophosphate formation by TLC analysis. Format: physicochemical.
Data set [5] in a line: Half life of the compound in KCl/KOH buffer at pH 12 assessed as acyclovir and acyclovir monophosphate formation by TLC analysis. Format: physicochemical.
Data set [6] has as its system Human immunodeficiency virus 1. In words: Antiviral activity against HIV1 pseudovirus infected in Jurkat cells coexpressing GFP assessed as viral growth inhibition incubated for 2 to 8 hrs prior to infection measured after 48 hrs by flow cytofluorimetric analysis. It counts as functional, organism-based.
Data set [7] in a line: Half life of the compound in KCl/KOH buffer at pH 12 assessed as acyclovir formation by TLC analysis. Format: physicochemical.
Data set [8] is described as follows: Chemical stability of the compound in KCl/HCl buffer at pH 2 assessed as monoamidate formation by TLC analysis. It counts as physicochemical.
In data set [9] the test system is Human alphaherpesvirus 1. In words: Antiviral activity against acyclovir-resistant HSV1 L2 infected in Vero E6 cells assessed as inhibition of virus-induced cytopathic effect after 48 hrs. Format: functional, organism-based. The settings on record: Human alphaherpesvirus 1, L2, Vero. In general terms: Cytopathic effects are the visible damage that an infection or toxin causes in cultured cells.

Data set [10] in a line: Cytotoxicity against african green monkey Vero E6 cells after 72 hrs by trypan blue staining. Format: cell-based. The settings on record: chlorocebus sabaeus.
Data set [11] relates to Human alphaherpesvirus 1. In words: Antiviral activity against HSV1 L2 infected in Vero E6 cells assessed as inhibition of virus-induced cytopathic effect after 48 hrs. It counts as functional, organism-based. The settings on record: Human alphaherpesvirus 1, L2, Vero.
In data set [12] the test system is Human immunodeficiency virus 1. In words: Antiviral activity against HIV1 pseudovirus by cell-based assay. It counts as functional, organism-based.
The nature of data set [13]: Selectivity ratio of CC50 for african green monkey Vero cells to EC50 for acyclovir-resistant HSV1 L2. The settings on record: read-out: Ratio CC50/EC50. Format: ADME, cell-based.
A short description of data set [14]: Selectivity ratio of CC50 for african green monkey Vero cells to EC50 for HSV1 L2. The settings on record: read-out: Ratio CC50/EC50. It counts as ADME, cell-based.
In data set [15] the test system is Human alphaherpesvirus 1. In words: Resistance ratio of EC50 for acyclovir-resistant HSV1 L2 to EC50 for HSV1 L2. Format: functional.
Data set [16] relates to Human immunodeficiency virus 1. In words: Antiviral activity against HIV1 pseudovirus infected in Jurkat cells coexpressing GFP assessed as viral growth inhibition at 20 uM incubated for 2 to 8 hrs prior to infection measured after 48 hrs by flow cytofluorimetric analysis. Format: functional. The settings on record: Human immunodeficiency virus 1, Jurkat; read-out: GI.

Each structure is given as a SMILES string. Calls of active or inactive are those of the source. No cut-off for these calls is given here. Some results are limits rather than exact numbers.

As a reminder, the EC50 is the concentration giving half of the maximal effect. As usually defined, the CC50 is the concentration giving 50% cytotoxicity.

Turning to `N.Nc1nc2c(ncn2COCCOP(=O)(O)NCCN2CCOCC2)c(=O)[nH]1`, the Activity entry in data set [1] is “Non-toxic”. For the same molecule, the t1/2 in [2] was greater than 120 h; in data set [4] it was less than 5 min; in [5], 48 h. Further, in [3], the “growth inhibition (GI)” value was “Active”. Further, the “growth inhibition (GI)” value in [6] is “Dose-dependent effect”.
In the case of `CCCCCCNP(=O)(NCCCCCC)OCCOCn1cnc2c(=O)[nH]c(N)nc21`, the Activity result in data set [1] is “Non-toxic”. For the same molecule, the t1/2 was 5 h in data set [2], 1 h in [7] and 5 min in [4]. In addition, in data set [8], the Stability result is reported as “Stable”.
Consider `Nc1nc2c(ncn2COCCOP(N)(N)=O)c(=O)[nH]1`, for which the Activity result in data set [1] was “Non-toxic”. In addition, the t1/2 in data set [2] was 4 h; in data set [7] it was less than 1 h; in [4], 5 min. Also, the Stability entry in [8] was “Stable”.
For the molecule `Nc1nc2c(ncn2COCCOP(=O)(N2CCOCC2)N2CCOCC2)c(=O)[nH]1`, the EC50 in data set [9] and in data set [11] was greater than 500 µM in each case. Moreover, the Activity entry in data set [1] is recorded as “Non-toxic”. Further, the t1/2 in [2] is greater than 120 h; in data set [7], 18 h; in [4], 30 min. The CC50 at 72 h in data set [10] is greater than 2 mM. Also, the Stability result in data set [8] is “Stable”.
On to `Cc1cn([C@H]2C[C@H](N=[N+]=[N-])[C@@H](CO)O2)c(=O)[nH]c1=O` [ZIDOVUDINE], for which the EC50 in data set [12] is 3 nM; in data set [6] (Human immunodeficiency virus 1, Jurkat) it was 90 nM.
With `CCCN(CCC)P(=O)(O)OCCOCn1cnc2c(=O)[nH]c(N)nc21.N`, the EC50 stood at 37 µM in [9] and 15 µM in data set [11]. Besides, the Activity entry in data set [1] was “Non-toxic”. Moreover, the t1/2 in data set [2] was greater than 120 h; in data set [4], less than 5 min; in data set [5], 96 h. The “growth inhibition (GI)” value in [3] is “Active”. Also, the CC50 at 72 h in [10] is greater than 2 mM. In addition, the “growth inhibition (GI)” value in data set [6] is “Dose-dependent effect”. Besides, the values for the selectivity ratio in [13] and in [14] were greater than 54 and greater than 133, respectively. In addition, the “Ratio EC50” value in data set [15] was 2.5.
On to `Nc1nc2c(ncn2COCCO)c(=O)[nH]1` [ACYCLOVIR], for which the EC50 in data set [9] was 530 µM; in data set [11], 1.7 µM. Further, the “growth inhibition (GI)” value in [3] was “Active”. This molecule showed a CC50 at 72 h in data set [10] greater than 2 mM. Besides, the “growth inhibition (GI)” value in data set [6] is “Dose-dependent effect”. For the same molecule, the selectivity ratio in [13] was greater than 3.8; in data set [14], greater than 1180.
`Nc1nc2c(ncn2COCCOP(=O)(N2CCCC2)N2CCCC2)c(=O)[nH]1`: the Activity entry in data set [1] is “Non-toxic”. Also, the t1/2 in data set [2] worked out at 18 h; in data set [7], 3 h; in data set [4], 10 min. Further, the Stability result in data set [8] is reported as “Stable”.
On to `N.Nc1nc2c(ncn2COCCOP(=O)(O)N2CCCC2)c(=O)[nH]1`, for which the Activity entry in [1] was “Non-toxic”. The values for the t1/2 in data set [2], in data set [4] and in [5] were greater than 120 h, less than 5 min and 96 h, respectively. In addition, in data set [3], the “growth inhibition (GI)” value is “Active”. Further, the “growth inhibition (GI)” value in data set [6] was “Dose-dependent effect”.
Turning to `CN(C)CCCNP(=O)(O)OCCOCn1cnc2c(=O)[nH]c(N)nc21.N`, the Activity result in data set [1] was “Non-toxic”. For the same molecule, the t1/2 is greater than 120 h in data set [2], less than 5 min in data set [4] and 48 h in data set [5].
For the molecule `CN(C)CCNP(=O)(O)OCCOCn1cnc2c(=O)[nH]c(N)nc21.N`, the Activity entry in data set [1] is listed as “Non-toxic”. For the same molecule, the t1/2 in data set [2] is greater than 120 h; in [4] it was less than 5 min; in [5], 48 h.
Turning to `N.Nc1nc2c(ncn2COCCOP(=O)(O)N2CCOCC2)c(=O)[nH]1`, the EC50 amounted to 25 µM in [9] and 9.7 µM in [11]. Further, the Activity result in data set [1] is “Non-toxic”. The values for the t1/2 in data set [2], in data set [4] and in [5] were greater than 120 h, less than 5 min and greater than 120 h, respectively. In data set [3], the “growth inhibition (GI)” value is “Active”. In data set [10], the CC50 at 72 h was greater than 2 mM. The “growth inhibition (GI)” value in data set [6] is “Dose-dependent effect”. Further, the selectivity ratio in data set [13] was greater than 80; in data set [14], greater than 206. Moreover, the inhibition of growth at 20 µM in [16] was 50%. Further, in data set [15], the “Ratio EC50” value is 2.5.
On to `Nc1nc(=O)c2ncn(COCCOP(=O)(O)O)c2[nH]1`, for which the figures for the EC50 in data set [9] and in data set [11] were 41 µM and 20 µM, respectively. The Activity entry in data set [1] is “Non-toxic”. This molecule also gave a CC50 at 72 h in [10] greater than 2 mM. Besides, the selectivity ratio was greater than 49 in [13] and greater than 100 in [14].
Consider `CCCCCCNP(=O)(O)OCCOCn1cnc2c(=O)[nH]c(N)nc21.N`, for which the Activity result in data set [1] was “Non-toxic”. In addition, the t1/2 in data set [2] is greater than 120 h; in [4] it was less than 5 min; in data set [5], 48 h. Besides, the “growth inhibition (GI)” value in data set [3] is “Active”. In addition, the “growth inhibition (GI)” value in data set [6] was “Dose-dependent effect”.
